Tests used:
60 cancer cell lines = assay: NCI five-dose level screening test, second stage (GI50, TGI, LC50); format: cell-based; conditions: for Subpanel MID^b (average sensitivity of all cell line of a particular subpanel) / MID^a (average sensitivity of all cell line): GI50; for MID^a (average sensitivity of all cell line): all cell lines
Excerpt: From the results, compounds SJ-3 (NSC 772864) and SJ-10 (NSC 772862) were selected by NCI for a five-dose level screening test and the mean growth percentage of the 60 cancer cell lines for the two compounds are 62.4 and −14.37, respectively. […] A summary of the NCI data provides information on the inhibition effect of various compound in different cancer cell lines (FIGS. 3 to 16 and Tables 3 to 8). […] Table 9 indicates the GI50, TGI and LC50 of the NCI data of TC-XCl, SJ-3 and SJ-10 NCI.

Solubility in DMSO = format: physicochemical; conditions: order SJ-2<SJ-24<SJ-3<SJ-11
Excerpt: The solubility of the four compounds in DMSO is poor, SJ-2<SJ-24<SJ-3<SJ-11, and therefore it is estimated and this is the reason why the three compounds which have previously proven to be effective against PC-3 cell line by SRB assays are ineffective in this experiment.

[1] = Non-Small Cell Lung Cancer subpanel

CCN(CC)CCNc1nc2ccccc2c2c1-c1ccc(Cl)cc1C2=O [SJ-3, 6-(2-(Diethylamino)ethylamino)-9-chloro-11H-indeno[1,2-c]quinolin-11-one]
Selectivity ratio (MID^a:MID^b) (60 cancer cell lines; Breast Cancer subpanel): 1.159 | Subpanel MID^b (average sensitivity of all cell line of a particular subpanel) (60 cancer cell lines; Breast Cancer subpanel): 12.345 µM | Selectivity ratio (MID^a:MID^b) (60 cancer cell lines; CNS Cancer subpanel): 0.962 | Subpanel MID^b (average sensitivity of all cell line of a particular subpanel) (60 cancer cell lines; CNS Cancer subpanel): 14.875 µM | Selectivity ratio (MID^a:MID^b) (60 cancer cell lines; Colon Cancer subpanel): 0.778 | Subpanel MID^b (average sensitivity of all cell line of a particular subpanel) (60 cancer cell lines; Colon Cancer subpanel): 18.400 µM | Selectivity ratio (MID^a:MID^b) (60 cancer cell lines; Leukemia subpanel): 1.475 | Subpanel MID^b (average sensitivity of all cell line of a particular subpanel) (60 cancer cell lines; Leukemia subpanel): 9.696 µM | Selectivity ratio (MID^a:MID^b) (60 cancer cell lines; Melanoma subpanel): 0.914 | Subpanel MID^b (average sensitivity of all cell line of a particular subpanel) (60 cancer cell lines; Melanoma subpanel): 15.654 µM | Selectivity ratio (MID^a:MID^b) (60 cancer cell lines; [1]): 1.210 | Subpanel MID^b (average sensitivity of all cell line of a particular subpanel) (60 cancer cell lines; [1]): 11.819 µM | Selectivity ratio (MID^a:MID^b) (60 cancer cell lines; Ovarian Cancer subpanel): 0.820 | Subpanel MID^b (average sensitivity of all cell line of a particular subpanel) (60 cancer cell lines; Ovarian Cancer subpanel): 17.448 µM | Selectivity ratio (MID^a:MID^b) (60 cancer cell lines; Prostate Cancer subpanel): 0.914 | Subpanel MID^b (average sensitivity of all cell line of a particular subpanel) (60 cancer cell lines; Prostate Cancer subpanel): 15.650 µM | Selectivity ratio (MID^a:MID^b) (60 cancer cell lines; Renal Cancer subpanel): 1.124 | Subpanel MID^b (average sensitivity of all cell line of a particular subpanel) (60 cancer cell lines; Renal Cancer subpanel): 12.733 µM | MID^a (average sensitivity of all cell line) (60 cancer cell lines): 14.306 µM | solubility in DMSO (Solubility in DMSO): poor

CN(C)c1nc2ccccc2c2c1-c1ccc(Cl)cc1C2=O [SJ-2, 9-Chloro-6-(dimethylamino)-11H-indeno[1,2-c]quinolin-11-one]
solubility in DMSO (Solubility in DMSO): poor

O=C1c2cc(Cl)ccc2-c2c(N3CCNCC3)nc3ccccc3c21 [SJ-10, 9-Chloro-6-(piperazin-1-yl)-11H-indeno[1,2-c]quinolin-11-one]
Selectivity ratio (MID^a:MID^b) (60 cancer cell lines; Breast Cancer subpanel): 1.541 | Subpanel MID^b (average sensitivity of all cell line of a particular subpanel) (60 cancer cell lines; Breast Cancer subpanel): 6.813 µM | Selectivity ratio (MID^a:MID^b) (60 cancer cell lines; CNS Cancer subpanel): 1.304 | Subpanel MID^b (average sensitivity of all cell line of a particular subpanel) (60 cancer cell lines; CNS Cancer subpanel): 8.053 µM | Selectivity ratio (MID^a:MID^b) (60 cancer cell lines; Colon Cancer subpanel): 1.075 | Subpanel MID^b (average sensitivity of all cell line of a particular subpanel) (60 cancer cell lines; Colon Cancer subpanel): 9.763 µM | Selectivity ratio (MID^a:MID^b) (60 cancer cell lines; Leukemia subpanel): 0.954 | Subpanel MID^b (average sensitivity of all cell line of a particular subpanel) (60 cancer cell lines; Leukemia subpanel): 11.000 µM | Selectivity ratio (MID^a:MID^b) (60 cancer cell lines; Melanoma subpanel): 0.528 | Subpanel MID^b (average sensitivity of all cell line of a particular subpanel) (60 cancer cell lines; Melanoma subpanel): 19.894 µM | Selectivity ratio (MID^a:MID^b) (60 cancer cell lines; [1]): 1.621 | Subpanel MID^b (average sensitivity of all cell line of a particular subpanel) (60 cancer cell lines; [1]): 6.477 µM | Selectivity ratio (MID^a:MID^b) (60 cancer cell lines; Ovarian Cancer subpanel): 0.772 | Subpanel MID^b (average sensitivity of all cell line of a particular subpanel) (60 cancer cell lines; Ovarian Cancer subpanel): 13.591 µM | Selectivity ratio (MID^a:MID^b) (60 cancer cell lines; Prostate Cancer subpanel): 1.959 | Subpanel MID^b (average sensitivity of all cell line of a particular subpanel) (60 cancer cell lines; Prostate Cancer subpanel): 5.360 µM | Selectivity ratio (MID^a:MID^b) (60 cancer cell lines; Renal Cancer subpanel): 1.648 | Subpanel MID^b (average sensitivity of all cell line of a particular subpanel) (60 cancer cell lines; Renal Cancer subpanel): 6.370 µM | MID^a (average sensitivity of all cell line) (60 cancer cell lines): 10.498 µM

From patent publication US20150197492A1, “NOVEL INDENO[1,2-c]QUINOLIN-11-ONE DERIVATIVES, PREPARATION METHOD AND APPLICATION THEREOF” (National Defense Medical Center, priority 2014, published 2015)
